Test results from PMC8733726, “Dioctanoyl Ultrashort Tetrabasic β-Peptides Sensitize Multidrug-Resistant Gram-Negative Bacteria to Novobiocin and Rifampicin” (Frontiers in Microbiology, 2021).
Converted amounts (≈) assume the structure as drawn. Read-outs that look alike come from different tables or passages of the source.

Assays:
[1] = test system: wild-type P. aeruginosa PAO1; assay: microbe, parasite or virus in culture; assay type: cell-based, Pseudomonas aeruginosa; settings: for MICcombo: antibiotic with dUSTBβP 3 at 8 μg/mL; for MIC: Pseudomonas aeruginosa, read-out: MICantibiotic
Excerpt: (§1) Overnight-grown bacterial culture diluted in saline to 0.5 McFarland turbidity was successively diluted 1:50 in MHB to achieve a final concentration of 5 × 10^5 CFU/mL for inoculation. The antibiotic and adjuvant were serially diluted 2-fold along the x-axis and y-axis, respectively, resulting in varying concentrations of both agents in each well. […] Confirmation of turbidity was done using an EMax Plus microplate reader (Molecular Devices, United States) at a wavelength of 590 nm. Wells comprising MHB alone or in the presence of bacterial cells were used as negative or positive controls, respectively. Fractional inhibitory concentration index (FICI) is determined by adding the FICs of both antibiotic and adjuvant. The FIC of the antibiotic is calculated by dividing the MIC of the antibiotic in the presence of the adjuvant by the MIC of the antibiotic alone. Similarly, the FIC of the adjuvant is calculated by dividing the MIC of the adjuvant in the presence of the antibiotic by the MIC of the adjuvant alone.

[2] = test system: wild-type A. baumannii ATCC 17978; assay: Checkerboard assay; assay type: cell-based, Acinetobacter baumannii; settings: for MICcombo: antibiotic with dUSTBβP 3 at 8 μg/mL; for MIC: Acinetobacter baumannii, ATCC17978, 18 h, read-out: MICantibiotic
Excerpt: as §1

[3] = test system: wild-type E. coli ATCC 25922; assay: microbe, parasite or virus in culture; assay type: cell-based, Escherichia coli; settings: for MICcombo: antibiotic with dUSTBβP 3 at 8 μg/mL; for MIC: Escherichia coli, ATCC25922, 18 h, read-out: MICantibiotic
Description: The adjuvant activities of dUSTBβPs were evaluated using checkerboard assay as previously described ([Berry et al., 2019]). Overnight-grown bacterial culture diluted in saline to 0.5 McFarland turbidity was successively diluted 1:50 in MHB to achieve a final concentration of 5 × 10^5 CFU/mL for inoculation. The antibiotic and adjuvant were serially diluted 2-fold along the x-axis and y-axis, respectively, resulting in varying concentrations of both agents in each well. Subsequently, the 96-well plate was incubated with equal volumes of bacterial inoculum at 37°C for 18 h. Confirmation of turbidity was done using an EMax Plus microplate reader (Molecular Devices, United States) at a wavelength of 590 nm. Wells comprising MHB alone or in the presence of bacterial cells were used as negative or positive controls, respectively. Fractional inhibitory concentration index (FICI) is determined by adding the FICs of both antibiotic and adjuvant. The FIC of the antibiotic is calculated by dividing the MIC of the antibiotic in the presence of the adjuvant by the MIC of the antibiotic alone. Similarly, the FIC of the adjuvant is calculated by dividing the MIC of the adjuvant in the presence of the antibiotic by the MIC of the adjuvant alone. FICI ≤ 0.5, 0.5 < x ≤ 4, and >4 were deemed synergistic, additive, and antagonistic, respectively ([Meletiadis et al., 2010]).

[4] = test system: MDR E. coli clinical isolates; assay: Resistance phenotype (MICs of antibiotics) of MDR clinical isolates; assay type: cell-based, Escherichia coli; settings: Escherichia coli, read-out: MIC
[5] = test system: MDR E. cloacae clinical isolates; assay: as above; assay type: cell-based, Enterobacter cloacae; settings: Enterobacter cloacae, read-out: MIC
[6] = test system: MDR K. pneumoniae clinical isolates; assay: as above; assay type: cell-based, Klebsiella pneumoniae; settings: Klebsiella pneumoniae
[7] = test system: MDR P. aeruginosa clinical isolates; assay: as above; assay type: cell-based, Pseudomonas aeruginosa; settings: Pseudomonas aeruginosa
[8] = test system: MDR A. baumannii clinical isolates; assay: as above; assay type: cell-based, Acinetobacter baumannii; settings: Acinetobacter baumannii, read-out: MIC
[9] = 18 h, PAO1, antibiotic alone (Supplementary Table 7)
[10] = ATCC 17978, antibiotic alone (Supplementary Table 7)
[11] = ATCC 25922, antibiotic alone (Supplementary Table 7)

| SMILES | MICcombo ([1]; PAO1) [µg/mL] | MIC [1, 9] [µg/mL] | MICcombo ([2]; ATCC 17978) [µg/mL] | MIC [2, 10] [µg/mL] | MICcombo ([3]; ATCC 25922) [µg/mL] | MIC [3, 11] [µg/mL] | MIC ([4]; 94393 (mcr-1 +)) [µg/mL] | MIC ([4]; 94474 (mcr-1 +)) [µg/mL] | MIC [4]; 107115 [µg/mL] | MIC ([7]; 259-96196, read-out: MIC) [µg/mL] | MIC ([7]; 262-101856, read-out: MIC) [µg/mL] | also measured |
| --- | --- | --- | --- | --- | --- | --- | --- | --- | --- | --- | --- | --- |
| C=C[C@]1(C)C[C@@H](OC(=O)CO)[C@]2(C)[C@H](C)CC[C@]3(CCC(=O)[C@H]32)[C@@H](C)[C@@H]1O [Pleuromutilin] | 256 | 1020 (≈ 2710 µM) | 4 | 256 | 0.5 | 64 |  |  |  |  |  |  |
| CCN1CCN(C(=O)N[C@@H](C(=O)N[C@@H]2C(=O)N3[C@@H]2SC(C)(C)[C@@H]3C(=O)O)c2ccccc2)C(=O)C1=O [Piperacillin] | 4 | 4 (≈ 7.73 µM) | 32 | > 128 | 0.125 | 2 |  |  |  |  |  |  |
| C[C@H]1[C@H](NC(=O)/C(=N\OC(C)(C)C(=O)O)c2csc(N)n2)C(=O)N1S(=O)(=O)O [Aztreonam] | 4 | 4 (≈ 9.19 µM) | 32 | 64 | 0.063 | 0.25 | ≤ 0.12 | ≤ 0.12 | > 64 | 32 (≈ 73.5 µM) | 32 (≈ 73.5 µM) | MIC [5]; 117029: ≤ 0.12 µg/mL; MIC [5]; 118564: ≤ 0.12 µg/mL; MIC [5]; 121187: ≤ 0.12 µg/mL; MIC ([6]; 113250, read-out: MIC): ≤ 0.12 µg/mL; MIC ([6]; 113254, read-out: MIC): ≤ 0.12 µg/mL; MIC ([6]; 116381, read-out: MIC): 16 µg/mL (≈ 36.7 µM); MIC ([7]; 264-104354, read-out: MIC): 64 µg/mL (≈ 147 µM); MIC ([7]; 114228, read-out: MIC): 32 µg/mL (≈ 73.5 µM) |
| COc1cc(Cc2cnc(N)nc2N)cc(OC)c1OC [Trimethoprim] | 32 | 128 (≈ 441 µM) | > 128 | > 128 | 64 | 512 |  |  |  |  |  |  |
| NC[C@H]1O[C@H](O[C@H]2[C@H](O)[C@@H](O[C@H]3O[C@H](CO)[C@@H](O)[C@H](N)[C@H]3O)[C@H](N)C[C@@H]2N)[C@H](N)C[C@@H]1O [Tobramycin] | 1 | 1 (≈ 2.14 µM) | > 1 | > 1 | 1 | 2 | ≤ 0.5 | 32 (≈ 68.4 µM) | 8 (≈ 17.1 µM) | 256 (≈ 548 µM) | 1020 (≈ 2190 µM) | MIC ([8]; LAC-4): > 4 µg/mL; MIC [5]; 117029: 2 µg/mL (≈ 4.28 µM); MIC [5]; 118564: 1 µg/mL (≈ 2.14 µM); MIC [5]; 121187: 32 µg/mL (≈ 68.4 µM); MIC ([6]; 113250, read-out: MIC): ≤ 0.5 µg/mL; MIC ([6]; 113254, read-out: MIC): ≤ 0.5 µg/mL; MIC ([6]; 116381, read-out: MIC): 4 µg/mL (≈ 8.56 µM); MIC ([7]; 264-104354): 128 µg/mL (≈ 274 µM); MIC ([7]; 91433, read-out: MIC): 16 µg/mL (≈ 34.2 µM); MIC ([7]; 114228, read-out: MIC): 2 µg/mL (≈ 4.28 µM) |
| C[C@H]1COc2c(N3CCN(C)CC3)c(F)cc3c(=O)c(C(=O)O)cn1c23 [Levofloxacin] | 0.25 | 0.5 (≈ 1.38 µM) | 0.25 | 0.25 | 0.002 | 0.008 | 1 (≈ 2.77 µM) | 32 (≈ 88.6 µM) | 32 (≈ 88.6 µM) | 256 (≈ 708 µM) | 64 (≈ 177 µM) | MIC [8]; 110193: ≤ 1 µg/mL; MIC ([8]; AB027): 8 µg/mL (≈ 22.1 µM); MIC ([8]; AB031): 0.25 µg/mL (≈ 0.692 µM); MIC ([8]; LAC-4): 2 µg/mL (≈ 5.53 µM); MIC [6]; 113250: 0.125 µg/mL (≈ 0.346 µM); MIC [6]; 113254: 0.0625 µg/mL (≈ 0.173 µM); MIC [6]; 116381: 128 µg/mL (≈ 354 µM); MIC ([7]; 264-104354, read-out: MIC): 64 µg/mL (≈ 177 µM) |
| CN[C@H](CC(C)C)C(=O)N[C@H]1C(=O)N[C@@H](CC(N)=O)C(=O)N[C@H]2C(=O)N[C@H]3C(=O)N[C@H](C(=O)N[C@H](C(=O)O)c4cc(O)cc(O)c4-c4cc3ccc4O)[C@H](O)c3ccc(c(Cl)c3)Oc3cc2cc(c3O[C@@H]2O[C@H](CO)[C@@H](O)[C@H](O)[C@H]2O[C@H]2C[C@](C)(N)[C@H](O)[C@H](C)O2)Oc2ccc(cc2Cl)[C@H]1O [Vancomycin] | 256 |  | 32 |  | 64 |  |  |  |  |  |  | MIC ([1]; PAO1, 18 h): 256 µg/mL (≈ 177 µM); MIC [2]: > 128 µg/mL; MIC [3]: 128 µg/mL |
| CC(=O)NC[C@H]1CN(c2ccc(N3CCOCC3)c(F)c2)C(=O)O1 [Linezolid] | 256 | 1020 (≈ 3040 µM) | 64 | 512 | 16 | 256 |  |  |  |  |  |  |
| C[C@@H]1O[C@@H]1P(=O)(O)O [Fosfomycin] | 2 | 32 (≈ 232 µM) | 256 | > 256 | 8 | 16 |  |  |  |  |  |  |
| CC[C@H]1OC(=O)[C@H](C)[C@@H](O[C@H]2C[C@@](C)(OC)[C@@H](O)[C@H](C)O2)[C@H](C)[C@@H](O[C@@H]2O[C@H](C)C[C@H](N(C)C)[C@H]2O)[C@](C)(O)C[C@@H](C)C(=O)[C@H](C)[C@@H](O)[C@]1(C)O [Erythromycin] |  | 256 (≈ 349 µM) | 1 | 16 | 0.25 | 64 |  |  |  |  |  |  |
| CCC[C@@H]1C[C@@H](C(=O)N[C@@H]([C@H]2O[C@H](SC)[C@H](O)[C@@H](O)[C@H]2O)[C@H](C)Cl)N(C)C1 [Clindamycin] | 128 | 2050 (≈ 4820 µM) | 64 | 512 | 4 | 64 |  |  |  |  |  |  |
| CN(C)c1cc(NC(=O)CNC(C)(C)C)c(O)c2c1C[C@H]1C[C@H]3[C@H](N(C)C)C(O)=C(C(N)=O)C(=O)[C@@]3(O)C(O)=C1C2=O [TGC, tigecycline] |  |  |  |  |  |  | 0.25 (≈ 0.427 µM) | 1 (≈ 1.71 µM) | 0.25 (≈ 0.427 µM) | 32 (≈ 54.6 µM) | 32 (≈ 54.6 µM) | MIC [8]; 92247: 0.25 µg/mL (≈ 0.427 µM); MIC ([8]; AB027): 4 µg/mL (≈ 6.83 µM); MIC ([8]; AB031): 8 µg/mL (≈ 13.7 µM); MIC ([8]; LAC-4): < 4 µg/mL; MIC [5]; 117029: 0.5 µg/mL (≈ 0.854 µM); MIC ([6]; 116381, read-out: MIC): 1 µg/mL (≈ 1.71 µM); MIC ([7]; 264-104354, read-out: MIC): 32 µg/mL (≈ 54.6 µM); MIC ([7]; 91433, read-out: MIC): 32 µg/mL (≈ 54.6 µM) |
